Experimental data published in ChEMBL document CHEMBL1147928, “Engineering small molecule specificity in nearly identical cellular environments” (Bioorg Med Chem Lett, 2007).

What was measured:
[1] = Cytotoxicity against mouse wild type fibroblast cells by MTT assay; type: cell-based
MEF = assay: Cytotoxicity against FKBP deficient MEF cells by MTT assay; type: cell-based; details: Mus musculus

## CN(Cc1cnc2nc(N)nc(N)c2n1)c1ccc(C(=O)NC(CCC(=O)O)C(=O)O)cc1 (single isomer, unassigned) [METHOTREXATE]
[1]
  IC50: 180 nM
MEF
  IC50: 120 nM
